The record followed here is patent US10183912B2, “HDMX inhibitors and their use for cancer treatment” (priority 2014, dated 2019).

The target in experiment [1] is T1, HDMX (Homo sapiens, UniProt O15151).
T1 sequence (O15151 1-490): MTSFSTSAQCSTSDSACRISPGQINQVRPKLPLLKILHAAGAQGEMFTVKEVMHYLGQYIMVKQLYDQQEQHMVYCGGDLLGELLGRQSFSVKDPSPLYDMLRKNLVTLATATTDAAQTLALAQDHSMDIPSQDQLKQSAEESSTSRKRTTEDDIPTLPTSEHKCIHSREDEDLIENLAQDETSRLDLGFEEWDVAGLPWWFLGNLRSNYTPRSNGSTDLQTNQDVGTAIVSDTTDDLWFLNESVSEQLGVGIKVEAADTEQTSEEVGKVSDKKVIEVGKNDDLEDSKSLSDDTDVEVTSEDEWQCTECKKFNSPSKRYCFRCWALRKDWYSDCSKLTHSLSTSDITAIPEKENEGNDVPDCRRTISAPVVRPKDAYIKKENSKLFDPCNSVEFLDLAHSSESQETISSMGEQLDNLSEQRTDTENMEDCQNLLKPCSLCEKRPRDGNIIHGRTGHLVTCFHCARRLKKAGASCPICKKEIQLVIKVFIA
Kind of experiment: Surface plasmon resonance binding to immobilized recombinant HDMX. The following applies: doses up to 12.5 μM. For orientation: SPR reads the build-up and loss of mass on a sensor chip optically.

Experiment [2] addresses T1, HDMX. In words: Spectral (absorbance) studies after size exclusion chromatography with HDMX. The format is binding. The following applies: absorbance pattern after removal of free compound. For orientation: Size exclusion chromatography separates by hydrodynamic size, large species first.
In experiment [3] the target is T2, GST-HDMX (Homo sapiens, UniProt O15151).
T2 sequence (O15151 1-490): T1 sequence (O15151 1-490)
Particulars: immunoprecipitation / streptavidin pull-down.

In experiment [4] the test system is HCT116 p53-wild-type cells. In words: Cell cycle analysis by PI staining, HCT116 p53-wild-type cells. The format is cell-based. The following applies: after 24 hr of treatment with CTX1 (2 μM); decrease from 20%.
Experiment [5] concerns HCT116 p53-null cells. In words: Cell cycle analysis by PI staining, HCT116 p53-null cells. Type of experiment: cell-based. The following applies: after 24 hr of treatment with CTX1 (2 μM); reduction from 25%.
The test system of experiment [6] is primary human AML cells. Kind of experiment: Survival of NSG mice injected with primary human AML cells. Type of experiment: in vivo.
The target in experiment [7] is HDM2/p53 (Homo sapiens, UniProt Q00987). In words: ELISA of recombinant HDM2/p53 interaction. The format is biochemical. Background: In an ELISA, binding on a coated surface is turned into a signal by an enzyme label.
HDM2/p53, sequence (Q00987 whole entry): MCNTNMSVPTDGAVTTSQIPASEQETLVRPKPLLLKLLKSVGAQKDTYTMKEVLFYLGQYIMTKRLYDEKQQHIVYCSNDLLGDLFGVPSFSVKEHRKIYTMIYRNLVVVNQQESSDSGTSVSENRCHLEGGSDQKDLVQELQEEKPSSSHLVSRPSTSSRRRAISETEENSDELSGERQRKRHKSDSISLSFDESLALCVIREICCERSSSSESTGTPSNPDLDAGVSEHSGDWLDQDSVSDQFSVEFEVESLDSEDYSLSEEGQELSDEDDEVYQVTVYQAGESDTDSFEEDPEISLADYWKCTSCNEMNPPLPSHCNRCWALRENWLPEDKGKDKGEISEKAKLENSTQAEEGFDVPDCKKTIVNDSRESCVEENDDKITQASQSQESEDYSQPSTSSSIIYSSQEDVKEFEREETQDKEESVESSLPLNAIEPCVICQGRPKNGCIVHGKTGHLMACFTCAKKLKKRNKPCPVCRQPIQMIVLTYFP
The subject of experiment [8] is IMR90 cells. Kind of experiment: Cell death (trypan blue) in IMR90 fibroblast model with HDMX, HDM2 or shp53. The format is cell-based. The following applies: 72 hr.
Experiment [9] deals with GST-FXR. Type of experiment: binding. The following applies: immunoprecipitation / streptavidin pull-down.
The subject of experiment [10] is HCT116 p53-wild type cells. In words: Annexin-V staining for apoptosis, HCT116 p53-wild type cells. Type of experiment: cell-based. Particulars: combination of CTX1 (3 μM) and nutlin-3 (5 μM), 72 hr.
The subject of experiment [11] is HCT116 p53-null cells. In words: Annexin-V staining for apoptosis, HCT116 p53-null cells. The format is cell-based. Particulars: combination of CTX1 (3 μM) and nutlin-3 (5 μM), 72 hr.
The test system of experiment [12] is MCF7 cells. The following applies: CTX1 3 μM.
The subject of experiment [13] is OCI cell line. Kind of experiment: IC50 / cell killing activity on OCI cell line. The format is cell-based.
The target in experiment [14] is T3, HDMX/p53 (Homo sapiens, UniProt O15151).
T3 sequence (O15151 1-490): T1 sequence (O15151 1-490)
Kind of experiment: ELISA of recombinant HDMX/p53 interaction. The format is biochemical.

The target in experiment [15] is T4, P53-HDMX (Homo sapiens, UniProt O15151).
T4 sequence (O15151 1-490): T1 sequence (O15151 1-490)
Kind of experiment: Co-immunoprecipitation of P53 and HDMX. The following applies: compared to DMSO and Nutlin. The format is biochemical.

In experiment [16] the test system is OCI-AML3 (OCI) cells overexpressing HDMX. In words: Cell killing of OCI cells overexpressing HDMX versus parental cells. Type of experiment: cell-based. The following applies: 72 hr trypan blue.

Each structure is given as a SMILES string. Read-outs that look alike come from different tables or passages of the source. A value given as a limit tells only on which side of the number the result lay.

Turning to `Nc1c2ccccc2nc2ccccc12` [9-AA, 9-aminoacridine], the “binding to HDMX using SPR” value in experiment [1] was “did not demonstrate any binding”. In experiment [2], the “binding to HDMX by spectral studies” value is “not observed”.

Consider `O=C(O)CCCC[C@@H]1SC[C@@H]2NC(=O)N[C@@H]21` [Biotin], for which the “direct interaction with GST-HDMX” value in experiment [3] was “not to bind with HDMX”.

For the molecule `N#Cc1c2ccc(N)cc2nc2cc(N)ccc12` [CTX1], the S phase is recorded as 4% in [4] and 15% in experiment [5]. In addition, the survival time result in experiment [6] (CTX1 (30 mg/kg i.p.) in combination with nutlin-3 (200 mg/kg p.o.)) is “significantly increased survival time”. Also, in [6] (single agent, 30 mg/kg i.p.), the survival of mice entry is “significantly enhanced the survival”. In [7], the “disruption of HDM2/p53 interaction” value was “not HDM2/p53”. The cell death result in [8] (HDMX-expressing cells (Vector or HDMX), 1, 2.5 and 5 μM) was “induced significant p53-dependent cell death”; in experiment [8] (cells with HDM2 overexpression or p53 knocked down by shRNA), “not cells in which p53 is inactivated by HDM2 overexpression”. In addition, the “direct interaction with GST-FXR” value in experiment [9] is reported as “not unrelated proteins such as GST-FXR”. For the same molecule, the induction of apoptosis result in experiment [10] is “synergistic induction of apoptosis”; in [11], “not p53-null cells”. In addition, the p53 induction entry in experiment [12] was “induces p53 rapidly”.

For `O=[N+]([O-])c1ccc2c(Cl)c3ccc([N+](=O)[O-])cc3nc2c1` [INVA3Z-1-1], in experiment [13], the IC50 amounted to 13.5 µM.

Take `Nc1ccc(Nc2c3ccccc3nc3ccccc23)cc1` [INVA3Z-5-2]: the IC50 in [13] (OCI cell line, read-out: IC 50) was determined as 4.7 µM.

In [13], `N#Cc1c2ccc([N+](=O)[O-])cc2nc2cc([N+](=O)[O-])ccc12` [INVA3Z-6-1] registered an IC50 of 14.1 µM.

For `N#Cc1c2ccccc2nc2ccccc12` [INVA3Z-6-3], the IC50 in [13] (OCI cell line, read-out: IC 50) is 13.4 µM.

Regarding `O=S(=O)(CCCOCc1ccccc1)Nc1ccc(Nc2c3ccccc3nc3ccccc23)cc1` [INVA3Z-10-1], the IC50 in experiment [13] (OCI cell line, read-out: IC 50) was 9.8 µM.

For `[N-]=[N+]=NCCCS(=O)(=O)Nc1ccc(Nc2c3ccccc3nc3ccccc23)cc1` [INVA3Z-13-1], in experiment [13] (OCI cell line, read-out: IC 50), the IC50 stood at 9.9 µM.

As to `O=C(CCl)Nc1c2ccccc2nc2ccccc12` [INVA3Z-17-2], the IC50 in experiment [13] (OCI cell line, read-out: IC 50) amounted to 13.6 µM.

As for `OCCNc1ccc(Nc2c3ccccc3nc3ccccc23)cc1` [INVA3Z-19-1], the IC50 in experiment [13] (OCI cell line, read-out: IC 50) was 5.8 µM.

On to `O=[N+]([O-])c1ccc2c(Cl)c3ccccc3nc2c1` [INVA3Z-28-1], for which, in experiment [13] (OCI cell line, read-out: IC 50), the IC50 came to 7.8 µM.

`ClCCN(CCCl)c1c2ccccc2nc2ccccc12` [INVA3Z-29-1] gave an IC50 in experiment [13] of more than 8 µM.

On to `N#Cc1ccc(Nc2c3ccccc3nc3ccccc23)cc1` [INVA3Z-29-2], for which the IC50 in [13] (OCI cell line, read-out: IC 50) was more than 8 µM.

Consider `O=C(CCCCC1SCC2NC(=O)NC21)Nc1ccc(Nc2c3ccccc3nc3ccccc23)cc1` (centres unmarked) [INVA3Z-31-1], for which the IC50 in experiment [13] (read-out: IC 50) is 11.9 µM.

For `Nc1ccc(Nc2c3ccccc3nc3cc([N+](=O)[O-])ccc23)cc1` [INVA3Z-32-1], in [13] (OCI cell line, read-out: IC 50), the IC50 came out at 4.8 µM.

`Nc1ccc(Nc2c3ccccc3nc3cc(N)ccc23)cc1` [INVA3Z-32-2]: in experiment [13] (OCI cell line, read-out: IC 50), the IC50 worked out at 4.7 µM.

Consider `CC(=O)Nc1ccc(Nc2c3ccccc3nc3ccccc23)cc1` [INVA3Z-36-1], for which the IC50 in experiment [13] (OCI cell line, read-out: IC 50) came out at 4.9 µM.

As for `Nc1cccc(Nc2c3ccccc3nc3ccccc23)c1` [INVA3Z-38-1], in experiment [13] (OCI cell line, read-out: IC 50), the IC50 amounted to 11.8 µM.

Regarding `CC(=O)Nc1cccc(Nc2c3ccccc3nc3ccccc23)c1` [INVA3Z-39-1], in experiment [13] (OCI cell line, read-out: IC 50), the IC50 came out at 12.1 µM.

Consider `CC(=O)Nc1ccc2c(Cl)c3ccccc3nc2c1` [INVA3Z-40-1], for which, in [13] (OCI cell line, read-out: IC 50), the IC50 was 13.2 µM.

Consider `CC(=O)Nc1ccc2c(Nc3ccc(N)cc3)c3ccccc3nc2c1` [INVA3Z-40-2], for which, in experiment [13] (OCI cell line, read-out: IC 50), the IC50 amounted to 13.9 µM.

For the molecule `[O-][n+]1c2ccccc2c(Cl)c2ccccc21` [INVA3Z-41-1], in experiment [13] (OCI cell line, read-out: IC 50), the IC50 was more than 15 µM.

Regarding `Nc1ccc(Nc2c3ccccc3[n+]([O-])c3ccccc23)cc1` [INVA3Z-41-2], in experiment [13] (OCI cell line, read-out: IC 50), the IC50 turned out to be 14.3 µM.

Turning to `Nc1ccc(Nc2c3ccc([N+](=O)[O-])cc3nc3cc([N+](=O)[O-])ccc23)cc1` [INVA3Z-42-1], the IC50 in experiment [13] (read-out: IC 50) was found to be 0.13 µM.

With `Nc1ccc2cc3ccc(N)c(I)c3nc2c1` [INVA3Z-46-2], the IC50 in experiment [13] (OCI cell line, read-out: IC 50) amounted to 7.9 µM.

Regarding `O=C(CCCCC1SCC2NC(=O)NC21)Nc1ccc(Nc2c3ccc([N+](=O)[O-])cc3nc3cc([N+](=O)[O-])ccc23)cc1` (centres unmarked) [INVA3Z-48-2], the IC50 in [13] amounted to 8.2 µM.

With `CC(=O)Nc1ccc(Nc2c3ccc([N+](=O)[O-])cc3nc3cc([N+](=O)[O-])ccc23)cc1` [INVA3Z-50-2], the IC50 in [13] was 1.4 µM. In addition, in experiment [14], the “disruption of HDMX/p53 interaction” value is on record as “Identical results were obtained”. In [7], the “disruption of HDM2/p53 interaction” value is recorded as “Identical results were obtained”. Besides, in experiment [15], the “disruption of P53-HDMX protein interaction” value was “disrupts”.

Regarding `Nc1ccc2cc3ccc(N)c(-c4ccccc4)c3nc2c1-c1ccccc1` [INVA3Z-52-2], in [13] (OCI cell line, read-out: IC 50), the IC50 came out at 3.4 µM.

Turning to `Nc1ccc2cc3ccc(N)c(-c4ccccc4)c3nc2c1I` [INVA3Z-52-3], the IC50 in [13] (OCI cell line, read-out: IC 50) turned out to be 7.8 µM.

In the case of `[N-]=[N+]=Nc1c2ccccc2nc2ccccc12` [INVA3Z-55-1], the IC50 in [13] (OCI cell line, read-out: IC 50) stood at 3.2 µM.

As to `O=[N+]([O-])c1ccc2c(Cl)c3cc([N+](=O)[O-])ccc3nc2c1` [INVA3Z-58-1], the IC50 in experiment [13] is more than 15 µM.

As to `Nc1ccc(Nc2c3ccccc3nc3ccccc23)c(N)c1` [INVA3Z-61-2], the IC50 in experiment [13] (OCI cell line, read-out: IC 50) came to 4.3 µM.

As for `Cc1c([N+](=O)[O-])ccc2c(Cl)c3ccc([N+](=O)[O-])cc3nc12` [INVA3Z-63-1], the IC50 in experiment [13] is more than 15 µM.

Molecule `Cc1c([N+](=O)[O-])ccc2c(Nc3ccc(N)cc3)c3ccc([N+](=O)[O-])cc3nc12` [INVA3Z-63-2] came in with an IC50 in experiment [13] of more than 15 µM.

Regarding `Cc1ccc2nc3cc([N+](=O)[O-])ccc3c(Nc3ccc(N)cc3)c2c1[N+](=O)[O-]` [INVA3Z-65-2], in [13], the IC50 was determined as 11.5 µM.

Molecule `Nc1ccc(Nc2c3ccc([N+](=O)[O-])cc3nc3cc([N+](=O)[O-])ccc23)cc1N` [INVA3Z-66-1] had an IC50 in experiment [13] of more than 15 µM.

Consider `Nc1ccn([C@@H]2O[C@H](CO)[C@@H](O)[C@@H]2O)c(=O)n1` [cytarabine, reference compound], for which the “efficacy in this model system” value in experiment [6] (standard AML therapeutic) is listed as “does not demonstrate efficacy”.

Consider `COc1ccc(C2=N[C@@H](c3ccc(Cl)cc3)[C@@H](c3ccc(Cl)cc3)N2C(=O)N2CCNC(=O)C2)c(OC(C)C)c1` [nutlin-3], for which the “sensitivity to cell killing versus parental cells” value in experiment [16] is “reduced activity”.
